The test system of the assay is Pten haploinsufficient mice. Put plainly: Social approach behavior assay (three-chamber apparatus). To be noted: female Pten haploinsufficient mice, 8 weeks of age, IP 0.3 mg/kg, 20 minutes prior to assay, quantified over 10 minutes, preliminary test. The assay is classed as in vivo. The protocol: FIG. 5: Effects of the 5-HT2cR antagonist SB 242084 on social approach behavior in Pten haploinsufficient mice. The mice tested were female littermates, 8 weeks of age. The mice were given an IP injection of 0.3 mg/kg of SB 242084 or vehicle, 20 minutes prior to start of the assay. A social stimulus mouse was placed in chamber 1 and an identical empty cage was placed in chamber 3. The percent time the subject mouse spent interacting with the stimulus mouse was quantified over 10 minutes. […] For vehicle treated groups, n=6; for SB 242084-treated groups, n=8. * P<0.05, ANOVA within group comparison between chamber 1 and chamber 3. In each group of bars, the order is: left bar=chamber 1, middle bar=chamber 2, right bar=chamber 3.
A mouse was placed in an open top acrylic box (24″L×12″W×12″H) with opaque walls. The box was divided into three (8″L×12″W) chambers separated by opaque acrylic panels with holes providing passage between chambers. For reference, the chambers were numbered, from left to right 1, 2, and 3. […] The resulting video was scored with computer assistance by importing into ImageJ software (http://rsb.info.nih.gov/ij/), where each chamber was defined as a region of interest using a script written in-house, and the number of frames in which the mouse was in each region of interest was quantified. […]

Molecules are shown by their SMILES. “Also recorded” adds a separate entry of the source.

Regarding `Cc1cc2c(cc1Cl)N(C(=O)Nc1ccc(Oc3cccnc3C)nc1)CC2` [SB 242084, 6-Chloro-5-methyl-1-[[2-(2-methylpyrid-3-yloxy)pyrid-5-yl]carbamoyl]indoline], the “social approach behavior (percent time interacting with stimulus mouse, chamber 1 vs chamber 3)” value is “can offset deficits in social approach behavior; also recorded: significant preference for interacting with the stimulus mouse”.

These data come from patent publication US9730945B2, “Diagnosis of autism spectrum disorders and its treatment with an antagonist or inhibitor of the 5-HT2c receptor signaling pathway” (Massachusetts Institute of Technology, priority 2009, dated 2017).
